What was measured:
σ-receptor = biological target: T1, σ-receptor (Rattus norvegicus, UniProt Q9R0C9); test: Affinity to σ-receptor ([3H]3PPP binding, rat cerebra without cerebellum); parameters: species or system Wistar male rats; details: 3 nM [3H]3PPP, 25° C., 90 minutes; non-specific: 1 μM haloperidol; read-out: Affinity to δ-Receptor IC50
T1 construct: all of the cerebra, other than the cerebellum, of Wistar male rats; from tissue; host or cells: rat brain (cerebra without cerebellum), crude washed membranes
T1 sequence (Q9R0C9 whole entry): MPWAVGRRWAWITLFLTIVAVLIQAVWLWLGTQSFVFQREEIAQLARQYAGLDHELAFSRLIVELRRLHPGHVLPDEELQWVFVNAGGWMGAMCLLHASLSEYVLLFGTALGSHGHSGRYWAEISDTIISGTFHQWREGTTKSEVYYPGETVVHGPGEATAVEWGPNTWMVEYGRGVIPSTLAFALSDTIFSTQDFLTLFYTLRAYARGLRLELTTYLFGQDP
Method: The affinities of the present compounds to the […] were determined according to a method described in the "Molecular Pharmacology," Vol. 32, 772-784 (1987).
That is, 50 mM of a Tris-HCl (pH=7.7) buffer solution was added to all of the cerebra, other than the cerebellum, of Wistar male rats, followed by homogenizing for […] in a Polytson® and then centrifugally separating same at 35000 G for 10 minutes. To the resultant precipitate was added the same buffer solution as used above, and the homogenizing and the centrafugalization were repeated. This procedure was repeated once more, and to the final precipitate was added a 50 mM Tris -HCl (pH=8.0) buffer solution and the receptor having a binding capability. In the binding experiments, 3nM [^3 H] propyl-3-(3-hydroxyphenyl) piperidine (i.e., [^3 H]3PPP) was used, and as a non-specific ligand, 1 μM haloperidol was used. After incubation at 25° C. for 90 minutes, the bound ligand was recovered by filtration and the determination was carried out. The filter used was a Whatmen GF/B filter treated with 0.5% polyethylene imine.

[1] = test system: locomotor hyperactivity induced by amfoneric acid; test: Inhibitory activity against locomotor hyperactivity induced by amfoneric acid; assay type: in vivo, ddy male mouse; details: Mus musculus, ip, 100 min, amfoneric acid 2.5 mg/kg s.c., total count over 100 minutes, read-out: Inhibition Rate; for inhibition in vivo at 30 mg/kg: 30 mg/kg intraperitoneal; for inhibition in vivo at 10 mg/kg: 10 mg/kg intraperitoneal, * 0.05 > P > 0.01, ** 0.01 > P > 0.001
Method: The inhibitory activity against locomotor hyperactivity induced by amfoneric acid of the present compounds were determined according to a method described in the "Journal of Pharmacology & Experimental Therapeuties," Vol. 239, 124-131 (1986) by R. T. Matthews et al.
That is, to a ddy male mouse having a body weight of about 25g, were simultaneously administered amfoneric acid (2.5 mg/kg, subcutaneous administration) and the present compound (intraperitoneal administration),and the amount of movement was determined using an apparatus for determining the amount of movement of a mouse. The amount of movement was determined over 100 minutes, and the test of significance thereof was effected for the total count number for 100 minutes by a Manwhitnee test. The value was indicated as the inhibition rate based, as a control, upon the group to which 2.5 mg/kg of amfoneric acid was subcutaneously administered.

catalepsy = test: Catalepsy; assay type: in vivo, ddy male mice; details: scored after 30, 60, 90, and 120 minutes
Method: To ddy male mice having a body weight of about 25 g was intraperitoneally administered the present compound and the catalepsy was determined after 30, 60, 90, and 120 minutes therefrom. The score of the catalepsy was as follows.
The forelegs of the mouse were placed on an aupper edge of a 5.5 cm height box and the time until the more fulled its forelegs down from the box or the mouse jumped up onto the top of the box was measured and the score was determined based upon the following standard.

IC50 (σ-receptor) [nM]	SMILES	also measured
4.73	O=C1COc2ccccc2C(=O)N1CCCCCN1CCC(c2ccccc2)CC1 [Example 30, 4-(5-(4-phenyl)-1-piperidinyl)pentyl-2,3,4,5-tetrahydro-1,4-benzoxazepine-3,5-dione]	inhibition in vivo at 30 mg/kg ([1]; * 0.05 > P > 0.01): 70%; Catalepsy (catalepsy; 30 mg/kg intraperitoneal): - (less than 1)
3.95	O=C1CSc2ccccc2C(=O)N1CCCCCN1CCC(c2ccccc2)CC1 [Example 32, 4-(5-(4-phenyl)-1-piperidinyl)pentyl-2,3,4,5-tetrahydro-1,4-benzothiazepine-3,5-dione]	–
7.82	O=C1COc2ccccc2C(=O)N1CCCCCN1CCC(c2ccc(Cl)cc2)CC1 [Example 31]	Catalepsy (catalepsy; 30 mg/kg intraperitoneal): - (less than 1)
10.3	O=C1COc2ccccc2CN1CCCCCN1CCC(c2ccc(Cl)cc2)CC1 [Example 29]	inhibition in vivo at 10 mg/kg [1]: 60%; Catalepsy (catalepsy; 30 mg/kg intraperitoneal): - (less than 1)
3.74	O=C1CCc2ccccc2C(=O)N1CCCCN1CCC(c2ccccc2)CC1 [Example 22, 2-(4-(4-phenyl)-1-piperidinyl)butyl-1,3,4,5-tetrahydro-2-benzazepine-1,3-dione]	inhibition in vivo at 10 mg/kg [1]: 52%
–	O=C(CCCN1CCC(O)(c2ccc(Cl)cc2)CC1)c1ccc(F)cc1 [Haloperidol, reference compound]	Catalepsy (catalepsy; 0.1 mg/kg intraperitoneal, control): ++ (more than 2 but less than 3)
9.22	O=C1COc2ccccc2CN1CCCCN1CCC(c2ccccc2)CC1 [Example 4]	–
10.9	O=C1c2ccccc2OCCN1CCCCCN1CCC(c2ccccc2)CC1 [Example 26, 4-(5-(4-phenyl)-1-piperidinyl)pentyl-2,3,4,5-tetrahydro-1,4-benzoxazepin-5-one]	inhibition in vivo at 10 mg/kg [1]: 65%; Catalepsy (catalepsy; 30 mg/kg intraperitoneal): - (less than 1)
–	OC(CCCN1CCN(c2ncc(F)cn2)CC1)c1ccc(F)cc1 (centres unmarked) [BMY14802, reference compound]	inhibition in vivo at 30 mg/kg ([1]; * 0.05 > P > 0.01): 51%
10.6	O=C1c2ccccc2OCCN1CCCCCN1CCC(c2ccc(Cl)cc2)CC1 [Example 27, 4-(5-(4-(4-chlorochenyl)1-piperidinyl)pentyl)-2,3,4,5-tetrahydro-1,4-benzoxazepin-5-one]	–
3.62	O=C1CCc2ccccc2C(=O)N1CCCCCN1CCC(c2ccccc2)CC1 [Example 36, 2-(5-(4-phenyl)-1-piperidinyl)pentyl-1,3,4,5-tetrahydro-2-benzazepine-1,3-dione]	–
17.8	O=C1COc2ccccc2C(=O)N1CCCCN1CCC(c2ccccn2)CC1 [Example 14, 4-(4-(4-(2-pyridyl)-1-piperidinyl)butyl)-2,3,4,5-tetrahydro-1,4-benzoxazepine-3,5-dione]	–
8.91	O=C1CCc2ccccc2C(=O)N1CCCCCN1CCC(c2ccc(Cl)cc2)CC1 [Example 37, 2-(5-(4-(4-chlorophenyl)-1-piperidinyl)pentyl)-1,3,4,5-tetrahydro-2-benzazepine-1,3-dione]	inhibition in vivo at 10 mg/kg [1]: 74%; Catalepsy (catalepsy; 30 mg/kg intraperitoneal): - (less than 1)
14.2	O=C1c2ccccc2OCCN1CCCCN1CCC(c2ccccc2)CC1 [Example 1, 4-(4-(4-phenyl)-1-piperidinyl)butyl-2,3,4,5-tetrahydro-1,4-benzoxazepin-5-one]	–
17.6	O=C1CSc2ccccc2C(=O)N1CCCCCN1CCC(c2ccc(Cl)cc2)CC1 [Example 33]	–
13.7	CN1CC(=O)N(CCCCN2CCC(c3ccccc3)CC2)C(=O)c2ccccc21 [Example 21, 1-methyl-4-(4-(4-phenyl) -1-piperidinyl)butyl-2,3,4,5-tetrahydro-1,4-benzodiazepine-3,5-dione]	Catalepsy (catalepsy; 30 mg/kg intraperitoneal): - (less than 1)
8.02	O=C1COc2ccccc2CN1CCCCCN1CCC(c2ccccc2)CC1 [Example 28, 4-(5-(4-phenyl)-1-piperidinyl)pentyl-2,3,4,5-tetrahydro-1,4-benzoxazepin-3-one]	–
16.1	O=C1CNc2ccccc2C(=O)N1CCCCN1CCC(c2ccc(Cl)cc2)CC1 [Example 19]	inhibition in vivo at 10 mg/kg [1]: 53%; Catalepsy (catalepsy; 20 mg/kg intraperitoneal): - (less than 1)
6.4	O=C1CCc2ccccc2C(=O)N1CCCCN1CCC(c2ccc(Cl)cc2)CC1 [Example 23, 2-(4-(4-(4-chlorophenyl)-1-piperidinyl)butyl)-1,3,4,5-tetrahydro-2-benzazepine-1,3-dione]	–
4	O=C1CSc2ccccc2C(=O)N1CCCCN1CCC(c2ccccc2)CC1 [Example 17, 4-(4-(4-phenyl)-1-piperidinyl)butyl-2,3,4,5-tetrahydro-1,4-benzothiazepine-3,5-dione]	–
6.61	O=C1COc2ccccc2C(=O)N1CCCCN1CCC(c2ccccc2)CC1 [Example 8, 4-(4-(4-phenyl)-1-piperidinyl)butyl-2,3,4,5-tetrahydro-1,4-benzoxazepine-3,5-dione]	inhibition in vivo at 30 mg/kg ([1]; * 0.05 > P > 0.01): 73%; Catalepsy (catalepsy; 30 mg/kg intraperitoneal): - (less than 1)
18.7	O=C1COc2ccccc2CN1CCCCN1CCC(c2ccc(Cl)cc2)CC1 [Example 5]	–
11.7	O=C1c2ccccc2OCCN1CCCCN1CCC(c2ccc(Cl)cc2)CC1 [Example 2, 4-(4-(4-(4-chlorophenyl)-1-piperidinyl)butyl)-2,3,4,5-tetrahydro-1,4-benzoxazepin-5-one]	–
14.1	O=C1CNc2ccccc2C(=O)N1CCCCN1CCC(c2ccccc2)CC1 [Example 18, 4-(4-(4-phenyl)-1-piperidinyl)butyl-2,3,4,5-tetrahydro-1,4-benzodiazepine-3,5-dione]	inhibition in vivo at 1 mg/kg ([1]; 1 mg/kg intraperitoneal, * 0.05 > P > 0.01): 65%; inhibition in vivo at 10 mg/kg [1]: 90%; Catalepsy (catalepsy; 10 mg/kg intraperitoneal): - (less than 1)
4.73	O=C1COc2ccccc2C(=O)N1CCCCN1CCC(c2ccc(Cl)cc2)CC1 [Example 9, 4-(4-(4-(4-chlorophenyl)-1-piperidinyl)butyl)-2,3,4,5-tetrahydro-1,4-benzoxazepine-3,5-dione]	–

SMILES	IC50 (σ-receptor) [nM]	also measured
O=C1COc2ccccc2C(=O)N1CCCCN1CC=C(c2ccccc2)CC1 [Example 12, 4-(4-(4-phenyl-1,2,3,6-tetrahydro)-1-pyridyl)butyl-2,3,4,5-tetrahydro-1,4-benzoxazepine-3,5-dione]	12.1	–

Reference: US5158947A, “Condensed heterocyclic compounds and psychopharmaceutical composition containing same” (Suntory Limited, priority 1990, dated 1992)
